# Measured values: the supplement of paper PMC10307832
# Tests used:
# Experiment in all cases: relative viability (nuclei count vs DMSO), 5 days (fraction); higher = more cells survive
# 201T = system: 201T
# Summary of the method: (§1)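 Medians of duplicate plates are given as relative viability. That measure is the nuclei count in treated wells divided by the count in vehicle wells. Counts were taken on 4× images of lung cancer cell lines in 1536-well plates, 5 days after pin-tool dosing the day after seeding with one drug alone or a fixed anchor-drug dose plus five library-drug doses (not always all listed) in √10 steps.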
# BEN = system: BEN
# Summary of the method: as §1
# COR-L 105 = system: COR-L 105
# Summary of the method: as §1
# EMC-BAC-2 = system: EMC-BAC-2
# Summary of the method: as §1
# H3255 = system: H3255
# Summary of the method: as §1
# HARA = system: HARA
# Summary of the method: as §1
# HCC-78 = system: HCC-78
# Summary of the method: as §1
# HOP-62 = system: HOP-62
# Summary of the method: as §1
# LC-2-ad = system: LC-2-ad
# Summary of the method: as §1
# LOU-NH91 = system: LOU-NH91
# Summary of the method: as §1
# LU99A = system: LU99A
# Summary of the method: as §1
# LXF-289 = system: LXF-289
# Summary of the method: as §1
# NCI-H1395 = system: NCI-H1395
# Summary of the method: as §1
# NCI-H1563 = system: NCI-H1563
# Summary of the method: as §1
# NCI-H1993 = system: NCI-H1993
# Summary of the method: as §1
# NCI-H2087 = system: NCI-H2087
# Summary of the method: as §1
# NCI-H2126 = system: NCI-H2126
# Summary of the method: as §1
# NCI-H2170 = system: NCI-H2170
# Summary of the method: as §1
# NCI-H650 = system: NCI-H650
# Summary of the method: as §1
# RERF-LC-KJ = system: RERF-LC-KJ
# Summary of the method: as §1
# SK-MES-1 = system: SK-MES-1
# Summary of the method: as §1
# SW 900 = system: SW 900
# Summary of the method: as §1
# UMC-11 = system: UMC-11
# Summary of the method: as §1
smiles,measurement,setting,value
Cc1csc(=NC2CCCCC2)n1/N=C/c1ccc(O)c(O)c1O [MIM1] + COc1cccc2cc(-c3nc([C@H]4CC[C@H](C(=O)O)CC4)n4ncnc(N)c34)[nH]c12 [OSI-027] (partner 0.5 µM),relative viability,201T; first compound 0.2 µM,0.739
same,relative viability,201T; first compound 0.6325 µM,0.834
same,relative viability,201T; first compound 2 µM,0.745
same,relative viability,201T; first compound 6.325 µM,0.478
same,relative viability,201T; first compound 20 µM,0.272
same,relative viability,BEN; first compound 0.2 µM,0.309
same,relative viability,BEN; first compound 0.6325 µM,0.315
same,relative viability,BEN; first compound 2 µM,0.28
same,relative viability,BEN; first compound 6.325 µM,0.318
same,relative viability,BEN; first compound 20 µM,0.298
same,relative viability,COR-L 105; first compound 0.2 µM,0.733
same,relative viability,COR-L 105; first compound 0.6325 µM,0.725
same,relative viability,COR-L 105; first compound 2 µM,0.596
same,relative viability,COR-L 105; first compound 6.325 µM,0.582
same,relative viability,COR-L 105; first compound 20 µM,0.552
same,relative viability,EMC-BAC-2; first compound 0.2 µM,0.422
same,relative viability,EMC-BAC-2; first compound 0.6325 µM,0.36
same,relative viability,EMC-BAC-2; first compound 2 µM,0.357
same,relative viability,EMC-BAC-2; first compound 6.325 µM,0.344
same,relative viability,EMC-BAC-2; first compound 20 µM,0.253
same,relative viability,H3255; first compound 0.2 µM,0.596
same,relative viability,H3255; first compound 0.6325 µM,0.575
same,relative viability,H3255; first compound 2 µM,0.572
same,relative viability,H3255; first compound 6.325 µM,0.519
same,relative viability,H3255; first compound 20 µM,0.313
same,relative viability,HARA; first compound 0.2 µM,0.503
same,relative viability,HARA; first compound 2 µM,0.547
same,relative viability,HARA; first compound 6.325 µM,0.166
same,relative viability,HARA; first compound 20 µM,0.0624
same,relative viability,HCC-78; first compound 0.2 µM,0.365
same,relative viability,HCC-78; first compound 0.6325 µM,0.356
same,relative viability,HCC-78; first compound 2 µM,0.303
same,relative viability,HCC-78; first compound 6.325 µM,0.384
same,relative viability,HCC-78; first compound 20 µM,0.468
same,relative viability,HOP-62; first compound 0.2 µM,0.848
same,relative viability,HOP-62; first compound 0.6325 µM,0.912
same,relative viability,HOP-62; first compound 2 µM,0.789
same,relative viability,HOP-62; first compound 6.325 µM,0.666
same,relative viability,HOP-62; first compound 20 µM,0.19
same,relative viability,LC-2-ad; first compound 0.2 µM,0.909
same,relative viability,LC-2-ad; first compound 0.6325 µM,0.591
same,relative viability,LC-2-ad; first compound 2 µM,0.754
same,relative viability,LC-2-ad; first compound 6.325 µM,0.373
same,relative viability,LC-2-ad; first compound 20 µM,0.218
same,relative viability,LOU-NH91; first compound 0.2 µM,0.721
same,relative viability,LOU-NH91; first compound 0.6325 µM,0.692
same,relative viability,LOU-NH91; first compound 2 µM,0.64
same,relative viability,LOU-NH91; first compound 6.325 µM,0.694
same,relative viability,LOU-NH91; first compound 20 µM,0.635
same,relative viability,LU99A; first compound 0.2 µM,0.274
same,relative viability,LU99A; first compound 0.6325 µM,0.29
same,relative viability,LU99A; first compound 2 µM,0.273
same,relative viability,LU99A; first compound 6.325 µM,0.288
same,relative viability,LU99A; first compound 20 µM,0.233
same,relative viability,LXF-289; first compound 0.2 µM,0.782
same,relative viability,LXF-289; first compound 0.6325 µM,0.586
same,relative viability,LXF-289; first compound 2 µM,0.806
same,relative viability,LXF-289; first compound 6.325 µM,0.686
same,relative viability,LXF-289; first compound 20 µM,0.441
same,relative viability,NCI-H1395; first compound 0.2 µM,0.592
same,relative viability,NCI-H1395; first compound 0.6325 µM,0.63
same,relative viability,NCI-H1395; first compound 2 µM,0.618
same,relative viability,NCI-H1395; first compound 6.325 µM,0.508
same,relative viability,NCI-H1395; first compound 20 µM,0.374
same,relative viability,NCI-H1563; first compound 0.2 µM,0.725
same,relative viability,NCI-H1563; first compound 0.6325 µM,0.821
same,relative viability,NCI-H1563; first compound 2 µM,0.688
same,relative viability,NCI-H1563; first compound 6.325 µM,0.72
same,relative viability,NCI-H1563; first compound 20 µM,0.525
same,relative viability,NCI-H1993; first compound 0.2 µM,0.515
same,relative viability,NCI-H1993; first compound 0.6325 µM,0.57
same,relative viability,NCI-H1993; first compound 2 µM,0.557
same,relative viability,NCI-H1993; first compound 6.325 µM,0.518
same,relative viability,NCI-H1993; first compound 20 µM,0.474
same,relative viability,NCI-H2087; first compound 0.2 µM,0.688
same,relative viability,NCI-H2087; first compound 0.6325 µM,0.511
same,relative viability,NCI-H2087; first compound 2 µM,0.696
same,relative viability,NCI-H2087; first compound 6.325 µM,0.547
same,relative viability,NCI-H2087; first compound 20 µM,0.34
same,relative viability,NCI-H2126; first compound 0.2 µM,0.758
same,relative viability,NCI-H2126; first compound 0.6325 µM,0.672
same,relative viability,NCI-H2126; first compound 2 µM,0.732
same,relative viability,NCI-H2126; first compound 6.325 µM,0.657
same,relative viability,NCI-H2126; first compound 20 µM,0.466
same,relative viability,NCI-H2170; first compound 0.2 µM,0.714
same,relative viability,NCI-H2170; first compound 0.6325 µM,0.595
same,relative viability,NCI-H2170; first compound 2 µM,0.637
same,relative viability,NCI-H2170; first compound 6.325 µM,0.461
same,relative viability,NCI-H2170; first compound 20 µM,0.2
same,relative viability,NCI-H650; first compound 0.2 µM,0.563
same,relative viability,NCI-H650; first compound 0.6325 µM,0.414
same,relative viability,NCI-H650; first compound 2 µM,0.484
same,relative viability,NCI-H650; first compound 6.325 µM,0.533
same,relative viability,NCI-H650; first compound 20 µM,0.36
same,relative viability,RERF-LC-KJ; first compound 0.2 µM,0.555
same,relative viability,RERF-LC-KJ; first compound 0.6325 µM,0.629
same,relative viability,RERF-LC-KJ; first compound 2 µM,0.403
same,relative viability,RERF-LC-KJ; first compound 6.325 µM,0.313
same,relative viability,RERF-LC-KJ; first compound 20 µM,0.195
same,relative viability,SK-MES-1; first compound 0.2 µM,0.656
same,relative viability,SK-MES-1; first compound 0.6325 µM,0.643
same,relative viability,SK-MES-1; first compound 2 µM,0.591
same,relative viability,SK-MES-1; first compound 6.325 µM,0.439
same,relative viability,SK-MES-1; first compound 20 µM,0.15
same,relative viability,SW 900; first compound 0.2 µM,0.54
same,relative viability,SW 900; first compound 0.6325 µM,0.789
same,relative viability,SW 900; first compound 2 µM,0.703
same,relative viability,SW 900; first compound 6.325 µM,0.441
same,relative viability,SW 900; first compound 20 µM,0.191
same,relative viability,UMC-11; first compound 0.2 µM,0.504
same,relative viability,UMC-11; first compound 2 µM,0.579
same,relative viability,UMC-11; first compound 6.325 µM,0.397
same,relative viability,UMC-11; first compound 20 µM,0.264
